Among the test systems are MDA-MB-231 breast; NCI-H23 lung; UACC-62 melanoma; HCT-116 colon; TK-10 renal; RXF 393 renal; SK-MEL-5 melanoma; HT29 colon; RPMI-8226 leukemia; SW-620 colon; UACC-257 melanoma; SF-295 CNS; A498 renal; 786-0 renal.
Common to all, as to test: growth of human tumour cells (NCI), 48 h

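96-well plates; 48 h exposure; 5 concentrations. Endpoints by linear interpolation between flanking doses. Not reached: highest tested concentration assigned. The concentration for full growth arrest is given as TGI.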

In PubChem BioAssay (NCI) one finds TGI data, which are given here for 16 molecules.

For the molecule `CCSC1=N/C(=C\c2ccccc2O)C(Nc2ccc(C)cc2)=N1`, the TGI in the assay on MDA-MB-231 breast, in the assay with NCI-H23 lung, in the assay on UACC-62 melanoma, in the assay on HCT-116 colon, in the assay on TK-10 renal and in the assay on RXF 393 renal was more than 100 µM each time. Moreover, the TGI in the assay on SK-MEL-5 melanoma, with HT29 colon, with RPMI-8226 leukemia, in the assay with SW-620 colon, in the assay on UACC-257 melanoma and in the assay on SF-295 CNS was more than 100 µM throughout. Also, the TGI in the assay with A498 renal and with 786-0 renal was more than 100 µM each time.

Consider `O=P(O)(O)C(O)/C=C/c1ccccc1` (centres undefined), for which the TGI in the assay with MDA-MB-231 breast, in the assay on NCI-H23 lung, with UACC-62 melanoma, with HCT-116 colon, in the assay with TK-10 renal and in the assay on RXF 393 renal was more than 100 µM in each case. For the same molecule, the TGI in the assay on SK-MEL-5 melanoma, in the assay on HT29 colon, in the assay on RPMI-8226 leukemia, in the assay on SW-620 colon, with UACC-257 melanoma and with SF-295 CNS was more than 100 µM throughout. The TGI with A498 renal and with 786-0 renal was more than 100 µM throughout.

Regarding `Cc1cc(N(CCC#N)CCC#N)ccc1/C(N=Nc1cccc([N+](=O)[O-])c1)=N/NC(=O)c1cc(Cl)ccc1O`, the TGI with MDA-MB-231 breast was 53.5 µM; in the assay on NCI-H23 lung it was 64.1 µM; with UACC-62 melanoma, 40.2 µM; with HCT-116 colon it was more than 100 µM; in the assay on TK-10 renal, more than 100 µM; in the assay with RXF 393 renal it was 72.2 µM. The TGI with SK-MEL-5 melanoma is 39.3 µM; with HT29 colon it was more than 100 µM; with RPMI-8226 leukemia, 47.5 µM; in the assay on SW-620 colon, more than 100 µM; in the assay on UACC-257 melanoma it was 94.1 µM; in the assay with SF-295 CNS, more than 100 µM. Also, the figures for the TGI in the assay on A498 renal and in the assay on 786-0 renal were 49.2 µM and more than 100 µM, respectively.

For `O=C1c2cc3ccccc3cc2C2(c3ccc(Cl)cc3)N[C@H]3CCCC[C@@H]3N12` (some centres undefined), the TGI in the assay on MDA-MB-231 breast is 36.2 µM; in the assay on NCI-H23 lung, 31.3 µM; with UACC-62 melanoma, 35.2 µM; in the assay with HCT-116 colon, 18.8 µM; in the assay on TK-10 renal, 27.3 µM; in the assay on RXF 393 renal, 24.2 µM. The TGI in the assay on SK-MEL-5 melanoma is 42.8 µM; in the assay on HT29 colon, 53.5 µM; with RPMI-8226 leukemia it was more than 100 µM; in the assay on SW-620 colon it was 59.3 µM; in the assay with UACC-257 melanoma, 48 µM; in the assay with SF-295 CNS it was 32.4 µM. Also, the TGI worked out at 39.7 µM in the assay on A498 renal and 23.3 µM in the assay with 786-0 renal.

Consider `CC(=O)OCC1OC(n2c(N)c(C#N)c(-c3ccccc3)c(C#N)c2=S)C(OC(C)=O)C(OC(C)=O)C1OC(C)=O` (centres undefined), for which the TGI in the assay with MDA-MB-231 breast was more than 100 µM; with NCI-H23 lung, more than 100 µM; in the assay with UACC-62 melanoma, more than 100 µM; with HCT-116 colon it was more than 100 µM; in the assay with TK-10 renal, more than 100 µM; with RXF 393 renal, more than 70.5 µM. The TGI was more than 100 µM in the assay on SK-MEL-5 melanoma; more than 100 µM in the assay with HT29 colon; more than 100 µM in the assay with RPMI-8226 leukemia; more than 100 µM in the assay with SW-620 colon; more than 100 µM in the assay with UACC-257 melanoma; more than 93 µM with SF-295 CNS. For the same molecule, the TGI in the assay on A498 renal is more than 100 µM; in the assay on 786-0 renal, more than 86.4 µM.

Turning to `COC(=O)C(CCC1C=CCC1)N=Cc1ccccc1` (centres undefined), the TGI in the assay with MDA-MB-231 breast, in the assay with NCI-H23 lung, in the assay on UACC-62 melanoma, with HCT-116 colon, in the assay on TK-10 renal and in the assay with RXF 393 renal was more than 100 µM throughout. Further, the TGI in the assay with SK-MEL-5 melanoma was more than 100 µM; with HT29 colon, more than 100 µM; with RPMI-8226 leukemia it was 84.7 µM; in the assay with SW-620 colon, more than 100 µM; with UACC-257 melanoma it was more than 100 µM; with SF-295 CNS, more than 100 µM. Besides, the TGI in the assay with A498 renal and in the assay with 786-0 renal was more than 100 µM throughout.

Consider `CC(C)CCC1(O)O[C@H]2C[C@H]3[C@@H]4CCC5CC(=O)C=C[C@]5(C)[C@H]4CC[C@]3(C)[C@H]2[C@@H]1C` (some centres undefined), for which the TGI with MDA-MB-231 breast is 28.2 µM; in the assay on NCI-H23 lung, 14.8 µM; in the assay with UACC-62 melanoma, 28 µM; in the assay on HCT-116 colon, 19.3 µM; in the assay on TK-10 renal it was 24.2 µM; with RXF 393 renal it was 24.2 µM. For the same molecule, the TGI in the assay with SK-MEL-5 melanoma stood at 26.7 µM; in the assay with HT29 colon, 26.9 µM; in the assay on RPMI-8226 leukemia, 21.4 µM; in the assay on SW-620 colon it was 26.4 µM; in the assay on UACC-257 melanoma it was 28.3 µM; with SF-295 CNS it was 24 µM. Further, the TGI in the assay with A498 renal was 28.5 µM; in the assay on 786-0 renal, 25.4 µM.

Turning to `Nc1nc(Cl)cc(NCC2(CO)CCC(Cc3ccccc3)C2)n1` (centres undefined), the TGI was more than 100 µM in the assay with MDA-MB-231 breast; 72.3 µM in the assay with NCI-H23 lung; 40.1 µM in the assay with UACC-62 melanoma; more than 100 µM with HCT-116 colon; more than 77 µM in the assay on TK-10 renal; more than 80.5 µM with RXF 393 renal. The TGI in the assay on SK-MEL-5 melanoma was 15.6 µM; in the assay with HT29 colon it was more than 69.4 µM; with RPMI-8226 leukemia it was 62.7 µM; in the assay on SW-620 colon, more than 100 µM; in the assay on UACC-257 melanoma it was more than 50.7 µM; in the assay with SF-295 CNS it was more than 100 µM. Besides, the results for the TGI with A498 renal and in the assay with 786-0 renal were more than 65.8 µM and more than 100 µM, respectively.

Regarding `CN1CCC2(CC1)C(=O)N(N1CCCCCC1)C(=O)N2c1ccccc1`, the TGI in the assay on MDA-MB-231 breast, with NCI-H23 lung, with UACC-62 melanoma, in the assay with HCT-116 colon, in the assay with TK-10 renal and in the assay with RXF 393 renal was more than 100 µM in each case. Moreover, the TGI with SK-MEL-5 melanoma, in the assay on HT29 colon, with RPMI-8226 leukemia, with SW-620 colon, with UACC-257 melanoma and in the assay on SF-295 CNS was more than 100 µM throughout. Also, the TGI in the assay with A498 renal and with 786-0 renal was more than 100 µM throughout.

Consider `O=C(CSc1nc(=O)[nH]c2nc[nH]c12)Nc1ccccc1`, for which the TGI in the assay on MDA-MB-231 breast, in the assay with NCI-H23 lung, in the assay on UACC-62 melanoma, with HCT-116 colon, with TK-10 renal and in the assay on RXF 393 renal was more than 100 µM throughout. Moreover, the TGI in the assay on SK-MEL-5 melanoma, in the assay with HT29 colon, in the assay with RPMI-8226 leukemia, in the assay on SW-620 colon, in the assay on UACC-257 melanoma and in the assay on SF-295 CNS was more than 100 µM in each case. Further, the TGI in the assay with A498 renal and in the assay with 786-0 renal was more than 100 µM in each case.

In the case of `CC1(c2ccc(Cl)cc2)CC(c2ccc(Cl)cc2)=C(C#N)C(=C(C#N)C#N)N1` (centres undefined), the TGI in the assay with MDA-MB-231 breast worked out at 55.8 µM; with NCI-H23 lung, 34.7 µM; in the assay with UACC-62 melanoma it was 33.5 µM; with HCT-116 colon, 31.7 µM; in the assay with TK-10 renal it was 32.6 µM; in the assay with RXF 393 renal, 32.1 µM. The TGI in the assay with SK-MEL-5 melanoma is 27.2 µM; with HT29 colon it was more than 100 µM; in the assay with RPMI-8226 leukemia it was more than 100 µM; in the assay with SW-620 colon it was more than 100 µM; with UACC-257 melanoma, 37.1 µM; in the assay with SF-295 CNS, 32.6 µM. In addition, the TGI in the assay on A498 renal was found to be 40 µM; in the assay on 786-0 renal, 24.7 µM.

Regarding `CC(C)(C)c1ccc(CN2CCN(C(c3ccccc3)c3ccc(Cl)cc3)CC2)cc1` (centres undefined), the TGI is more than 100 µM in the assay with MDA-MB-231 breast; more than 100 µM with NCI-H23 lung; more than 100 µM in the assay on UACC-62 melanoma; more than 100 µM in the assay with HCT-116 colon; more than 100 µM with TK-10 renal; 82.7 µM with RXF 393 renal. Also, the TGI in the assay on SK-MEL-5 melanoma is 73.1 µM; in the assay on HT29 colon, 56.9 µM; in the assay on RPMI-8226 leukemia, more than 100 µM; in the assay on SW-620 colon, more than 100 µM; with UACC-257 melanoma, more than 100 µM; in the assay with SF-295 CNS, more than 100 µM. Besides, the TGI in the assay with A498 renal and in the assay on 786-0 renal was more than 100 µM in each case.

`O=C1OC(c2ccc(O)c(Cl)c2)(c2ccc(O)c(Cl)c2)c2ccc(Br)c3cccc1c23` (tested in a mixture with another compound): the TGI with MDA-MB-231 breast was 29.4 µM; in the assay on NCI-H23 lung it was 34.8 µM; in the assay with UACC-62 melanoma, 26.1 µM; with HCT-116 colon, 36.3 µM; in the assay with TK-10 renal, 37 µM; with RXF 393 renal it was 32.5 µM. The TGI worked out at 31.3 µM in the assay on SK-MEL-5 melanoma; 29.3 µM in the assay with HT29 colon; 44.5 µM in the assay with RPMI-8226 leukemia; 41.1 µM in the assay on SW-620 colon; 34.8 µM with UACC-257 melanoma; 36.6 µM in the assay with SF-295 CNS. Further, the TGI in the assay with A498 renal is 31.7 µM; with 786-0 renal, 35.8 µM.

As for `CC(=O)C1=C(N=[N+]=[N-])c2cccc3cccc(c23)C1=O`, the TGI came to 32 µM in the assay on MDA-MB-231 breast; 43.4 µM with NCI-H23 lung; 34.2 µM in the assay with UACC-62 melanoma; 30.8 µM in the assay with HCT-116 colon; 36.1 µM in the assay on TK-10 renal; 28 µM with RXF 393 renal. For the same molecule, the TGI with SK-MEL-5 melanoma was 38.1 µM; with HT29 colon, 39.3 µM; with RPMI-8226 leukemia, 42.8 µM; in the assay on SW-620 colon, 55.1 µM; in the assay on UACC-257 melanoma, 43.8 µM; with SF-295 CNS, 61.7 µM. In addition, the values for the TGI in the assay on A498 renal and in the assay with 786-0 renal were 71 µM and 33.7 µM, respectively.

With `O=c1[nH]c2ccc(CC(=S)N3CCOCC3)cc2s1`, the TGI in the assay on MDA-MB-231 breast, in the assay with NCI-H23 lung, in the assay on UACC-62 melanoma, with HCT-116 colon, in the assay on TK-10 renal and with RXF 393 renal was more than 100 µM each time. For the same molecule, the TGI in the assay on SK-MEL-5 melanoma, in the assay with HT29 colon, in the assay on RPMI-8226 leukemia, with SW-620 colon, with UACC-257 melanoma and in the assay on SF-295 CNS was more than 100 µM in each case. The TGI with A498 renal and in the assay with 786-0 renal was more than 100 µM each time.

For the molecule `C1COC(NC(C2CC2)C2CC2)=N1`, the TGI in the assay with MDA-MB-231 breast, in the assay on NCI-H23 lung, in the assay on UACC-62 melanoma, in the assay on HCT-116 colon, with TK-10 renal and in the assay with RXF 393 renal was more than 100 µM in each case. Besides, the TGI in the assay with SK-MEL-5 melanoma, with HT29 colon, with RPMI-8226 leukemia, in the assay with SW-620 colon, in the assay with UACC-257 melanoma and with SF-295 CNS was more than 100 µM each time. Moreover, the TGI in the assay on A498 renal and in the assay with 786-0 renal was more than 100 µM throughout.
